tested on: HIV-1 pseudotyped virus; assay: HIV-1 pseudotyped virus assay (luciferase reporter gene, single cycle of infection); format: cell-based; settings: Human immunodeficiency virus 1, CCR5, 72 h, read-out: Activity (antiviral activity, IC50)
From the text: In this example are illustrated experimental procedures for determining biological activity, such as antiviral activity. For determining biological activity, an HIV-1 infection assay was used to determine the antiviral potency for compounds of the present invention.
For determining biological activity, an HIV-1 pseudotyped virus assay was used to determine the respective antiviral potencies of each compound tested in the assay for comparison. The pseudotyped assay scores for a reduction in infection as indicated by decreased signal from the reporter gene encoding a luciferase enzyme (“reporter gene”). The assay employs cell lines expressing CD4 and either of the primary chemokine receptors (CCR5 or CXCR4) that HIV uses as a co-receptor (“target cells”). Pseudotyped virus was prepared by co-transfection of 293T cells with: 1) a plasmid construct carrying the HIV-1 envelope of choice, in combination with 2) a pseudotyped virus backbone construct in which (a) envelope expression has been abrogated due to a frameshift in the envelope sequence, and (b) the reporter gene replaces nef. Expression of HIV-1 envelope on 293T packaging cells results in the production of a pseudotyped virus carrying the reporter gene that is capable of a single cycle of infection.
The compounds of the present invention being tested for antiviral activity were serially diluted and dose responses determined in duplicate in two separate experiments. The compounds to be tested were added directly to the plated, target cells, followed by the addition of pseudotyped virus described above. The cells were cultured for three days prior harvest. Media and compound were removed, the cell monolayer was washed, lysed by detergent, and then frozen at −80 degrees C. for a minimum of 30 minutes. Following thawing and acclimation to room temperature, luciferase production was quatified by injecting 100 […]I of a substrate (of the enzyme encoded by the reporter gene) into each well followed by detecting the signal (light emitted from the interaction between the enzyme and substrate) after 5 seconds. In the pseudotyped assay, a 50% reduction in signal is significant, and provides the primary cutoff value for assessing antiviral activity (“IC50” is defined as the dilution resulting in a 50% reduction in enzymatic activity as interpolated from a titration curve). Representative compounds according to the present invention, and their antiviral activity, are illustrated in Table 3.

SMILES	IC50
C[C@@H]1CN(C(=O)c2ccccc2)CCN1C(=O)C(=O)c1ccc(-c2cnco2)cc1 [Example 101, 1-((R)-4-Benzoyl-2-methyl-piperazin-1-yl)-2-(4-oxazol-5-yl-phenyl)-ethane-1,2-dione]	< 5 µM
Cc1cc(-c2ccc(C(=O)C(=O)N3CCN(C(=O)c4ccccc4)C[C@H]3C)cc2)on1 [Example 102, 1-((R)-4-Benzoyl-2-methyl-piperazin-1-yl)-2-[4-(3-methyl-isoxazol-5-yl)-phenyl]-ethane-1,2-dione]	< 5 µM
C[C@@H]1CN(C(=O)c2ccccc2)CCN1C(=O)C(=O)c1ccc(-c2nccs2)cc1 [Example 103, 1-((R)-4-Benzoyl-2-methyl-piperazin-1-yl)-2-(4-thiazol-2-yl-phenyl)-ethane-1,2-dione]	< 5 µM
Cc1nc(-c2ccc(C(=O)C(=O)N3CCN(C(=O)c4ccccc4)C[C@H]3C)cc2)cs1 [Example 104, 1-((R)-4-Benzoyl-2-methyl-piperazin-1-yl)-2-[4-(2-methyl-thiazol-4-yl)-phenyl]-ethane-1,2-dione]	> 5 µM
C[C@@H]1CN(C(=O)c2ccccc2)CCN1C(=O)C(=O)c1ccc(-c2nnn(C)n2)cc1 [Example 105, 1-((R)-4-Benzoyl-2-methyl-piperazin-1-yl)-2-[4-(2-methyl-2H-tetrazol-5-yl)-phenyl]-ethane-1,2-dione]	< 5 µM
CO/N=C(\c1ccccc1)N1CCN(C(=O)C(=O)c2ccc(-c3cnco3)cc2)[C@H](C)C1 [Example 106, 1-((R)-4-{[Methoxyimino]-phenyl-methyl}-2-methyl-piperazin-1-yl)-2-(4-oxazol-5-yl-phenyl)-ethane-1,2-dione]	< 5 µM
Cc1noc(-c2ccc(S(=O)(=O)N3CCN(C(=O)c4ccccc4)CC3C)s2)n1 (centres unmarked) [Example 107, {3-Methyl-4-[5-(3-methyl-[1,2,4]oxadiazol-5-yl)-thiophene-2-sulfonyl]-piperazin-1-yl}-phenyl-methanone]	> 5 µM
CON(C)C(=O)c1ccc(S(=O)(=O)N2CCN(C(=O)c3ccccc3)CC2C)s1 (centres unmarked) [Example 108, 5-(4-Benzoyl-2-methyl-piperazine-1-sulfonyl)-thiophene-2-carboxylic acid methoxy-methyl-amide]	< 5 µM
CC1CN(C(=O)c2ccccc2)CCN1S(=O)(=O)c1ccc(-n2cncn2)s1 (centres unmarked) [Example 109, [3-Methyl-4-(5-[1,2,4]triazol-1-yl-thiophene-2-sulfonyl)-piperazin-1-yl]-phenyl-methanone]	> 5 µM
CC1CN(C(=O)c2ccccc2)CCN1S(=O)(=O)c1ccc(C(=O)c2ccco2)s1 (centres unmarked) [Example 110, {4-[5-(Furan-2-carbonyl)-thiophene-2-sulfonyl]-3-methyl-piperazin-1-yl}-phenylmethanone]	> 5 µM
CC1CN(C(=O)c2ccccc2)CCN1S(=O)(=O)c1ccc(C(=O)c2cnc[nH]2)s1 (centres unmarked) [Example 111, {4-[5-(3H-Imidazole-4-carbonyl)-thiophene-2-sulfonyl]-3-methyl-piperazin-1-yl}-phenyl-methanone]	> 5 µM
CC1CN(C(=O)c2ccccc2)CCN1S(=O)(=O)c1ccc(C(=O)c2ccon2)s1 (centres unmarked) [Example 112, {4-[5-(Isoxazole-3-carbonyl)-thiophene-2-sulfonyl]-3-methyl-piperazin-1-yl}-phenyl-methanone]	> 5 µM
CC1CN(C(=O)c2ccccc2)CCN1S(=O)(=O)c1cccc(-n2ccnn2)c1 (centres unmarked) [Example 113, [3-Methyl-4-(3-[1,2,3]triazol-1-yl-benzenesulfonyl)-piperazin-1-yl]-phenyl-methanone]	> 5 µM
CC1CN(C(=O)c2ccccc2)CCN1S(=O)(=O)c1cccc(-n2cncn2)c1 (centres unmarked) [Example 114, [3-Methyl-4-(3-[1,2,4]triazol-1-yl-benzenesulfonyl)-piperazin-1-yl]-phenyl-methanone]	> 5 µM
CC1CN(C(=O)c2ccccc2)CCN1S(=O)(=O)c1cccc(-n2cccn2)c1 (centres unmarked) [Example 115, [3-Methyl-4-(3-pyrazol-1-yl-benzenesulfonyl)-piperazin-1-yl]-phenyl-methanone]	> 5 µM
CC1CN(C(=O)c2ccccc2)CCN1S(=O)(=O)c1ccc(-n2ccnn2)cc1 (centres unmarked) [Example 116, [3-Methyl-4-(4-[1,2,3]triazol-1-yl-benzenesulfonyl)-piperazin-1-yl]-phenyl-methanone]	> 5 µM

SMILES	IC50
CC1CN(C(=O)c2ccccc2)CCN1S(=O)(=O)c1ccc(-n2nccn2)cc1 (centres unmarked) [Example 117, [3-methyl-4-(4-[1,2,3]triazol-2-yl-benzenesulfonyl)-piperazin-1-yl]-phenyl-methanone]	> 5 µM
CC1CN(C(=O)c2ccccc2)CCN1S(=O)(=O)c1ccc(-n2cncn2)cc1 (centres unmarked) [Example 118, [3-Methyl-4-(4-[1,2,4]triazol-1-yl-benzenesulfonyl)-piperazin-1-yl]-phenyl-methanone]	> 5 µM
CC1CN(C(=O)c2ccccc2)CCN1S(=O)(=O)c1ccc(-n2cccn2)cc1 (centres unmarked) [Example 119, [3-Methyl-4-(4-pyrazol-1-yl-benzenesulfonyl)-piperazin-1-yl]-phenyl-methanone]	> 5 µM
C[C@@H]1CN(C(=O)c2ccccc2)CCN1S(=O)(=O)c1ccc(-c2c[nH]nn2)cc1 [Example 120, {(R)-3-Methyl-4-[4-(1H-[1,2,3]triazol-4-yl)-benzenesulfonyl]-piperazin-1-yl)-phenyl-methanone]	< 5 µM
CC(C)Cn1cc(-c2ccc(S(=O)(=O)N3CCN(C(=O)c4ccccc4)C[C@H]3C)cc2)nn1 [Example 121, {(R)-4-[4-(1-Isobutyl-1H-[1,2,3]triazol-4-yl)-benzenesulfonyl]-3-methyl-piperazin-1-yl}-phenyl-methanone]	> 5 µM
C[C@@H]1CN(C(=O)c2ccccc2)CCN1S(=O)(=O)c1ccc(-c2cn(Cc3ccccc3)nn2)cc1 [Example 122, [(R)-4-[4-(1-Benzyl-1H-[1,2,3]triazol-4-yl)-benzenesulfonyl]-3-methyl-piperazine-1-yl}-phenyl-methanone]	> 5 µM
CC(=O)c1ccc(-n2cc(-c3ccc(S(=O)(=O)N4CCN(C(=O)c5ccccc5)C[C@H]4C)cc3)nn2)cc1 [Example 123]	> 5 µM
C[C@@H]1CN(C(=O)c2ccccc2)CCN1S(=O)(=O)c1ccc(-c2cc(-c3ccccc3)no2)cc1 [Example 124, {(R)-3-Methyl-4-[4-(3-phenyl-isoxazol-5-yl)-benzenesulfonyl]-piperazin-yl}-phenyl-methanone]	> 5 µM
C[C@@H]1CN(C(=O)c2ccccc2)CCN1S(=O)(=O)c1ccc(-c2c[nH]nn2)s1 [Example 125, {(R)-3-Methyl-4-[5-(1H-[1,2,3]triazol-4-yl)-thiophene-2-sulfonyl]-piperazin-1-yl}-phenyl-methanone]	> 5 µM
C[C@@H]1CN(C(=O)c2ccccc2)CCN1S(=O)(=O)c1ccc(-c2cn(Cc3ccccc3)nn2)s1 [Example 127, {(R)-4-[5-(1-Benzyl-1H-[1,2,3]triazol-4-yl)-thiophene-2-sulfonyl]-3-methyl-piperazin-1-yl}-phenyl-methanone]	> 5 µM
CC(=O)c1ccc(-n2cc(-c3ccc(S(=O)(=O)N4CCN(C(=O)c5ccccc5)C[C@H]4C)s3)nn2)cc1 [Example 128]	> 5 µM
Cc1c[nH]c(-n2cc(-c3ccc(S(=O)(=O)N4CCN(C(=O)c5ccccc5)C[C@H]4C)s3)nn2)n1 [Example 129, ((R)-3-Methyl-4-{5-[1-(4-methyl-1H-imidazol-2-yl)-1H-[1,2,3]triazol-4-yl]-thiophene-2-sulfonyl}-piperazin-1-yl)-phenyl-methanone]	> 5 µM
CCOC(=O)c1sc(SC)nc1-n1cc(-c2ccc(S(=O)(=O)N3CCN(C(=O)c4ccccc4)C[C@H]3C)s2)nn1 [Example 130, 4-{4-[5-((R)-4-Benzoyl-2-methyl-piperazine-1-sulfonyl)-thiophen-2-yl]-[1,2,3]triazol-1-yl}-2-methylsulfanyl-thiazole-5-carboxylic acid ethyl ester]	> 5 µM
C[C@@H]1CN(C(=O)c2ccccc2)CCN1S(=O)(=O)c1ccc(-c2cc(-c3ccccc3)no2)s1 [Example 131, {(R)-3-Methyl-4-[5-(3-phenyl-sioxazol-5-yl)-thiophene-2-sulfonyl]-piperazin-1-yl}-phenyl-methanone]	> 5 µM
C[C@@H]1CN(C(=O)c2ccccc2)CCN1S(=O)(=O)c1ccc(-c2cc(C(=O)c3ccc(Cl)cc3)no2)s1 [Example 132, ((R)-4-{5-[3-(4-Chloro-benzoyl)-isoxazol-5-yl]-thiophene-2-sulfonyl}-3-methyl-piperazin-1-yl)-phenyl-methanone]	> 5 µM
C[C@@H]1CN(C(=O)c2ccccc2)CCN1S(=O)(=O)c1ccc(-n2cccn2)cc1 [Example 133, [(R)-3-methyl-4-(4-pyrazole-1-yl-benzenesulfonyl)-piperazin-1-yl]-phenyl-methanone]	> 5 µM

Reference: patent publication US20070259879A1, “Piperazine and piperidine biaryl derivatives” (priority 2006, published 2007)
